Target: Sodium- and chloride-dependent GABA transporter 1 (Mus musculus) (UniProt P31648)
Test: Inhibition of mouse GAT-1 assessed as percentage of remaining specific binding of NO711 at 1 uM after 4 hrs by LC-ESI-MS/ms analysis relative to control

How did the Activity turn out when `CC(C=O)(CCC#N)c1ccccc1` (stereo not given) was run?
Its Activity is 92%.

Which Activity does the source give for `COc1ccc(C=O)cc1` here?
Its Activity is 89%.

How did the Activity turn out when `COc1ccccc1C=O` was run?
The Activity was 89%.

With `Cc1ccccc1-c1ncccc1C=O` as the compound, how does the Activity read?
The Activity was 87%.

`Cc1ccsc1-c1sc(C=O)cc1C` was tested. Which Activity did it give?
Its Activity is 97%.

`Cc1noc(-c2ccccc2C=O)n1` was tested. Which Activity did it give?
Its Activity is 97%.

`Cc1onc(-c2ccc(Cl)cc2)c1C=O` was tested. Which Activity did it give?
Its Activity is 92%.

With `O=CC(c1ccccc1)c1ccccc1` as the compound, how does the Activity read?
Its Activity is 90%.

For `O=CC1CC2C=CC1C2` (stereo not given), which Activity is on record?
Its Activity is 85%.

How did the Activity turn out when `O=Cc1c2ccccc2cc2ccccc12` was run?
Its Activity is 87%.

For `O=Cc1c[nH]c2ncccc12`, which Activity is on record?
Its Activity is 85%.

`O=Cc1c[nH]nc1-c1ccc(F)cc1` was tested. Which Activity did it give?
Its Activity is 92%.

`O=Cc1cc(F)ccc1-c1ccc(Cl)cc1Cl` was tested. Which Activity did it give?
The Activity was 82%.

Which Activity does the source give for `O=Cc1cc(F)ccc1-c1ccccc1Cl` here?
Its Activity is 80%.

`O=Cc1cc2c(cc1-c1ccc(Cl)cc1Cl)OCO2` was tested. Which Activity did it give?
The Activity was 92%.

How did the Activity turn out when `O=Cc1cc2c(cc1-c1ccccc1)OCO2` was run?
Its Activity is 92%.

For `O=Cc1cc2c(cc1-c1ccccc1Cl)OCO2`, which Activity is on record?
Its Activity is 92%.

For `O=Cc1cc2c(cc1-c1ccccc1F)OCO2`, which Activity is on record?
The Activity was 92%.

With `O=Cc1ccc(-c2ccc(C(F)(F)F)cc2Cl)o1` as the compound, how does the Activity read?
The Activity was 82%.

For `O=Cc1ccc(-c2ccccc2)cc1`, which Activity is on record?
The Activity was 90%.

For `O=Cc1ccc(-c2ccccc2OC(F)(F)F)o1`, which Activity is on record?
Its Activity is 82%.

For `O=Cc1ccc(Br)cn1`, which Activity is on record?
The Activity was 92%.

With `O=Cc1ccc(Br)nc1` as the compound, how does the Activity read?
Its Activity is 92%.

With `O=Cc1ccc(C#Cc2ccccc2)s1` as the compound, how does the Activity read?
The Activity was 94%.

How did the Activity turn out when `O=Cc1ccc(O)cc1` was run?
The Activity was 89%.

Which Activity does the source give for `O=Cc1ccc(OCc2ccccc2)cc1` here?
The Activity was 90%.

For `O=Cc1ccc(Oc2ccccc2)cc1`, which Activity is on record?
Its Activity is 90%.

With `O=Cc1ccc([N+](=O)[O-])cc1` as the compound, how does the Activity read?
The Activity was 92%.

With `O=Cc1ccc2c(c1)Cc1ccccc1-2` as the compound, how does the Activity read?
The Activity was 88%.

`O=Cc1ccc2ccccc2n1` was tested. Which Activity did it give?
The Activity was 87%.

Which Activity does the source give for `O=Cc1cccc(Br)n1` here?
Its Activity is 92%.

With `O=Cc1cccc(Oc2ccccc2)c1` as the compound, how does the Activity read?
The Activity was 90%.

Which Activity does the source give for `O=Cc1cccc([N+](=O)[O-])c1` here?
Its Activity is 92%.

How did the Activity turn out when `O=Cc1cccc2c1OCO2` was run?
Its Activity is 80%.

For `O=Cc1ccccc1`, which Activity is on record?
Its Activity is 89%.

With `O=Cc1ccccc1-c1c(F)cccc1F` as the compound, how does the Activity read?
The Activity was 88%.

`O=Cc1ccccc1-c1cc(F)ccc1F` was tested. Which Activity did it give?
Its Activity is 88%.

For `O=Cc1ccccc1-c1ccc(Cl)cc1`, which Activity is on record?
The Activity was 92%.

How did the Activity turn out when `O=Cc1ccccc1-c1ccc(F)cc1` was run?
The Activity was 92%.

For `O=Cc1ccccc1-c1ccc2ccccc2c1`, which Activity is on record?
Its Activity is 86%.

With `O=Cc1ccccc1-c1cccc(Cl)c1` as the compound, how does the Activity read?
The Activity was 92%.

With `O=Cc1ccccc1-c1cccc(F)c1` as the compound, how does the Activity read?
Its Activity is 92%.

How did the Activity turn out when `O=Cc1ccccc1-c1cccc(F)c1F` was run?
The Activity was 88%.

Which Activity does the source give for `O=Cc1ccccc1-c1cccc2ccccc12` here?
The Activity was 85%.

`O=Cc1ccccc1-c1ccccc1` was tested. Which Activity did it give?
Its Activity is 90%.

`O=Cc1ccccc1-c1cccnc1` was tested. Which Activity did it give?
Its Activity is 88%.

For `O=Cc1ccccc1-c1ccco1`, which Activity is on record?
Its Activity is 80%.

With `O=Cc1ccccc1-c1cccs1` as the compound, how does the Activity read?
Its Activity is 92%.

How did the Activity turn out when `O=Cc1ccccc1-n1cccc1` was run?
The Activity was 97%.

Which Activity does the source give for `O=Cc1ccccc1-n1cccn1` here?
The Activity was 88%.

How did the Activity turn out when `O=Cc1ccccc1OCc1ccccc1` was run?
Its Activity is 90%.

`O=Cc1ccccc1Oc1ccccc1` was tested. Which Activity did it give?
The Activity was 88%.

For `O=Cc1ccccc1[N+](=O)[O-]`, which Activity is on record?
Its Activity is 92%.

For `O=Cc1ccccn1`, which Activity is on record?
The Activity was 85%.

For `O=Cc1cccn1-c1ccc(C(F)(F)F)cc1`, which Activity is on record?
The Activity was 82%.

How did the Activity turn out when `O=Cc1cccnc1` was run?
The Activity was 94%.

`O=Cc1cccnc1-c1ccc(Cl)cc1` was tested. Which Activity did it give?
Its Activity is 87%.

For `O=Cc1cccnc1-c1ccc(Cl)cc1Cl`, which Activity is on record?
Its Activity is 86%.

`O=Cc1cccnc1-c1cccc(Cl)c1` was tested. Which Activity did it give?
Its Activity is 80%.

For `O=Cc1cccnc1-c1cccc(F)c1`, which Activity is on record?
The Activity was 87%.

How did the Activity turn out when `O=Cc1cccnc1-c1ccccc1` was run?
The Activity was 87%.

How did the Activity turn out when `O=Cc1cccnc1-c1ccccc1Cl` was run?
Its Activity is 97%.

Which Activity does the source give for `O=Cc1cccnc1-c1ccccc1F` here?
The Activity was 80%.

How did the Activity turn out when `O=Cc1cccnc1Br` was run?
The Activity was 92%.

With `O=Cc1ccnc2ccccc12` as the compound, how does the Activity read?
Its Activity is 87%.

For `O=Cc1csc2ccccc12`, which Activity is on record?
Its Activity is 94%.

How did the Activity turn out when `O=Cc1sccc1-c1ccc(Cl)cc1Cl` was run?
Its Activity is 86%.

For `O=Cc1sccc1-c1ccc(F)cc1Cl`, which Activity is on record?
Its Activity is 86%.

How did the Activity turn out when `O=Cc1sccc1-c1ccccc1` was run?
Its Activity is 94%.

For `O=Cc1sccc1-n1cccc1`, which Activity is on record?
The Activity was 92%.
